Assay results taken from ChEMBL document CHEMBL3044927, “Novel 4(3H)-quinazolinone analogs: synthesis and anticonvulsant activity” (Med Chem Res, 2013).
The source made the active and inactive calls. No cut-off for these calls is given here.

Columns and labels:
[1] = Therapeutic index, ratio of LD50 to ED50 in Swiss albino Mus musculus (mouse); assay type: organism-based; settings: in vivo, read-out: Ratio LD50/ED50
[2] = tested on: Mus musculus; test: Anticonvulsant activity in Swiss albino Mus musculus (mouse) assessed as protection against bicuculline-induced seizure at 0.37 mmol/kg, i.p. administered 30 min prior to bicuculline-challenge measured up to 30 min relative to control; assay type: functional
[3] = Toxicity against i.p. dosed Swiss albino Mus musculus (mouse) by Sperman-Karber method; assay type: organism-based; settings: in vivo, ip
[4] = tested on: Mus musculus; test: Anticonvulsant activity in Swiss albino Mus musculus (mouse) assessed as protection against PTZ-induced seizure at 0.18 mmol/kg, ip administered 30 min prior to PTZ-challenge measured up to 30 min relative to control; assay type: functional
[5] = tested on: Mus musculus; test: Anticonvulsant activity in Swiss albino Mus musculus (mouse) assessed as protection against maximal electric shock-induced seizure at 0.75 mmol/kg, i.p. administered 30 min prior to maximal electric shock-challenge measured up to 30 min relative to control; assay type: functional
[6] = tested on: Mus musculus; test: Neurotoxicity against Swiss albino Mus musculus (mouse) at 0.75 mmol/kg, ip measured after 15 to 25 min by chimney test; assay type: toxicity, organism-based; settings: in vivo
[7] = Neurotoxicity against ip dosed Swiss albino Mus musculus (mouse) measured after 15 to 25 min by chimney test; assay type: toxicity, organism-based; settings: in vivo
[8] = tested on: Mus musculus; test: Anticonvulsant activity in Swiss albino Mus musculus (mouse) assessed as protection against bicuculline-induced seizure at 0.18 mmol/kg, i.p. administered 30 min prior to bicuculline-challenge measured up to 30 min relative to control; assay type: functional
[9] = tested on: Mus musculus; test: Anticonvulsant activity in Swiss albino Mus musculus (mouse) assessed as protection against PTZ-induced seizure at 0.75 mmol/kg, ip administered 30 min prior to PTZ-challenge measured up to 30 min relative to control; assay type: functional
[10] = tested on: Mus musculus; test: Anticonvulsant activity in Swiss albino Mus musculus (mouse) assessed as protection against PTZ-induced seizure at 1.5 mmol/kg, ip administered 30 min prior to PTZ-challenge measured up to 30 min relative to control; assay type: functional
[11] = tested on: Mus musculus; test: Anticonvulsant activity in Swiss albino Mus musculus (mouse) assessed as protection against maximal electric shock-induced seizure at 1.5 mmol/kg, ip administered 30 min prior to maximal electric shock-challenge measured up to 30 min relative to control; assay type: functional
[12] = tested on: Mus musculus; test: Anticonvulsant activity in Swiss albino Mus musculus (mouse) assessed as protection against maximal electric shock-induced seizure at 0.37 mmol/kg, i.p. administered 30 min prior to maximal electric shock-challenge measured up to 30 min relative to control; assay type: functional
[13] = tested on: Mus musculus; test: Anticonvulsant activity in Swiss albino Mus musculus (mouse) assessed as protection against picrotoxin-induced seizure at 0.37 mmol/kg, i.p. administered 30 min prior to picrotoxin-challenge measured up to 30 min relative to control; assay type: functional
[14] = tested on: Mus musculus; test: Anticonvulsant activity in ip dosed Swiss albino Mus musculus (mouse) assessed as protection against PTZ-induced seizure administered 30 min prior to PTZ-challenge measured up to 30 min; assay type: functional
[15] = tested on: Mus musculus; test: Neurotoxicity against Swiss albino Mus musculus (mouse) at 1.5 mmol/kg, ip measured after 15 to 25 min by chimney test; assay type: toxicity, organism-based; settings: in vivo
[16] = tested on: Mus musculus; test: Anticonvulsant activity in Swiss albino Mus musculus (mouse) assessed as protection against maximal electric shock-induced seizure at 0.18 mmol/kg, i.p. administered 30 min prior to maximal electric shock-challenge measured up to 30 min relative to control; assay type: functional
[17] = tested on: Mus musculus; test: Anticonvulsant activity in Swiss albino Mus musculus (mouse) assessed as protection against PTZ-induced seizure at 0.37 mmol/kg, ip administered 30 min prior to PTZ-challenge measured up to 30 min relative to control; assay type: functional
[18] = tested on: Mus musculus; test: Neurotoxicity against Swiss albino Mus musculus (mouse) at 0.18 mmol/kg, ip measured after 15 to 25 min by chimney test; assay type: toxicity, organism-based; settings: in vivo
[19] = tested on: Mus musculus; test: Anticonvulsant activity in Swiss albino Mus musculus (mouse) assessed as protection against bicuculline-induced seizure at 1.5 mmol/kg, ip administered 30 min prior to bicuculline-challenge measured up to 30 min relative to control; assay type: functional
[20] = tested on: Mus musculus; test: Anticonvulsant activity in Swiss albino Mus musculus (mouse) assessed as protection against bicuculline-induced seizure at 0.75 mmol/kg, i.p. administered 30 min prior to bicuculline-challenge measured up to 30 min relative to control; assay type: functional
[21] = species on record: Mus musculus; test: Protective index, ratio of TD50 for to ED50 in Swiss albino Mus musculus (mouse)
[22] = tested on: Mus musculus; test: Neurotoxicity against Swiss albino Mus musculus (mouse) at 0.37 mmol/kg, ip measured after 15 to 25 min by chimney test; assay type: toxicity, organism-based; settings: in vivo
[23] = tested on: Mus musculus; test: Anticonvulsant activity in Swiss albino Mus musculus (mouse) assessed as protection against maximal electric shock-induced seizure at 1.38 mmol/kg, ip administered 30 min prior to maximal electric shock-challenge measured up to 30 min relative to control; assay type: functional
[24] = tested on: Mus musculus; test: Anticonvulsant activity in Swiss albino Mus musculus (mouse) assessed as protection against picrotoxin-induced seizure at 1.38 mmol/kg, ip administered 30 min prior to picrotoxin-challenge measured up to 30 min relative to control; assay type: functional
[25] = tested on: Mus musculus; test: Anticonvulsant activity in Swiss albino Mus musculus (mouse) assessed as protection against bicuculline-induced seizure at 1.38 mmol/kg, ip administered 30 min prior to bicuculline-challenge measured up to 30 min relative to control; assay type: functional
[26] = tested on: Mus musculus; test: Anticonvulsant activity in Swiss albino Mus musculus (mouse) assessed as protection against PTZ-induced seizure at 1.38 mmol/kg, ip administered 30 min prior to PTZ-challenge measured up to 30 min relative to control; assay type: functional
[27] = Toxicity against Swiss albino Mus musculus (mouse) assessed as mortality at 1.5 mmol/kg, ip; assay type: organism-based; settings: in vivo, read-out: Activity
[28] = tested on: Mus musculus; test: Anticonvulsant activity in Swiss albino Mus musculus (mouse) assessed as protection against picrotoxin-induced seizure at 1.5 mmol/kg, ip administered 30 min prior to picrotoxin-challenge measured up to 30 min relative to control; assay type: functional
[29] = species on record: Mus musculus; test: Ratio of sodium valporate ED50 to compound ED50 in Swiss albino Mus musculus (mouse) PTZ-seizure model; assay type: functional
[30] = tested on: Mus musculus; test: Anticonvulsant activity in Swiss albino Mus musculus (mouse) assessed as protection against picrotoxin-induced seizure at 0.75 mmol/kg, i.p. administered 30 min prior to picrotoxin-challenge measured up to 30 min relative to control; assay type: functional
[31] = tested on: Mus musculus; test: Anticonvulsant activity in Swiss albino Mus musculus (mouse) assessed as protection against picrotoxin-induced seizure at 0.18 mmol/kg, i.p. administered 30 min prior to picrotoxin-challenge measured up to 30 min relative to control; assay type: functional

## Cc1ccc2nc(SCC(=O)NN3C(=O)c4c(Cl)c(Cl)c(Cl)c(Cl)c4C3=O)n(-c3ccccc3)c(=O)c2c1
[1]
  selectivity ratio: 2.82
[2]
  Activity: 10%
[3]
  LD50: 1290 mg/kg
[4]
  Activity: 0%
[5]
  Activity: 10%
[6]
  Activity: 30%
[7]
  TD50: 562 mg/kg
[8]
  Activity: 0%
[9]
  Activity: 50%
[10]
  Activity: 70%
[11]
  Activity: 70%
[12]
  Activity: 0%
[13]
  Activity: 20%
[14]
  ED50: 457 mg/kg
[15]
  Activity: 100%
[16]
  Activity: 0%
[17]
  Activity: 30%
[18]
  Activity: 0%
[19]
  Activity: 100%
[20]
  Activity: 70%
[21]
  Ratio TD50/ED50: 1.22
[22]
  Activity: 0%

## CCOC(=O)CSc1nc2ccc([N+](=O)[O-])cc2c(=O)n1-c1ccccc1
[10]
  Activity: inactive

## CCCC(CCC)C(=O)[O-].[Na+] [VALPROATE SODIUM]
[23]
  Activity: 100%
[24]
  Activity: 100%
[25]
  Activity: 100%
[26]
  Activity: 100%

## Cc1ccc2nc(SCC(=O)NN)n(Cc3ccccc3)c(=O)c2c1
[10]
  Activity: inactive
[27]
  mortality: 100%

## NNc1nc2ccc([N+](=O)[O-])cc2c(=O)n1Cc1ccccc1
[10]
  Activity: inactive

## O=C(Nn1c(-c2cccs2)nc2ccc(I)cc2c1=O)c1ccccc1
[10]
  Activity: 100%
[11]
  Activity: 0%
[28]
  Activity: 80%
[19]
  Activity: 100%

## NNC(=O)COc1nc(-c2cccs2)nc2ccc(I)cc12
[10]
  Activity: 30%

## O=c1oc(-c2cccs2)nc2ccc(I)cc12
[10]
  Activity: inactive

## Cc1ccc2nc(SCC(=O)NN3C(=O)c4c(Cl)c(Cl)c(Cl)c(Cl)c4C3=O)n(Cc3ccccc3)c(=O)c2c1
[10]
  Activity: inactive

## Cc1ccc2nc(SCC(=O)NN3C(=O)c4cccc5cccc(c45)C3=O)n(-c3ccccc3)c(=O)c2c1
[10]
  Activity: inactive

## Cc1ccc2nc(SCC(=O)NN3C(=O)CCC3=O)n(Cc3ccccc3)c(=O)c2c1
[10]
  Activity: 30%

## CCOC(=O)CSc1nc2ccc([N+](=O)[O-])cc2c(=O)n1Cc1ccccc1
[10]
  Activity: inactive

## O=C(COc1nc(-c2cccs2)nc2ccc(I)cc12)NN1C(=O)c2cccc3cccc(c23)C1=O
[10]
  Activity: inactive

## O=C1c2c(Br)c(Br)c(Br)c(Br)c2C(=O)N1n1c(-c2cccs2)nc2ccc(I)cc2c1=O
[10]
  Activity: 30%

## Cc1ccc2nc(SCC(=O)NN)n(-c3ccccc3)c(=O)c2c1
[10]
  Activity: inactive
[27]
  mortality: 100%

## NNc1nc2ccc([N+](=O)[O-])cc2c(=O)n1-c1ccccc1
[10]
  Activity: 30%

## O=C1c2cccc3cccc(c23)C(=O)N1Nc1nc2ccc([N+](=O)[O-])cc2c(=O)n1Cc1ccccc1
[10]
  Activity: 30%

## O=C(COc1nc(-c2cccs2)nc2ccc(I)cc12)NN1C(=O)c2ccccc2C1=O
[10]
  Activity: 30%

## O=c1[nH]c(-c2cccs2)nc2ccc(I)cc12
[10]
  Activity: inactive

## Cc1ccc2nc(SCC(=O)NN3C(=O)c4ccccc4C3=O)n(-c3ccccc3)c(=O)c2c1
[10]
  Activity: inactive

## Cc1ccc2nc(SCC(=O)NN3C(=O)c4c(Br)c(Br)c(Br)c(Br)c4C3=O)n(-c3ccccc3)c(=O)c2c1
[10]
  Activity: inactive

## O=c1c2cc([N+](=O)[O-])ccc2nc(S)n1-c1ccccc1
[10]
  Activity: 30%

## Cn1c(-c2cccs2)nc2ccc(I)cc2c1=O
[10]
  Activity: 100%
[11]
  Activity: 0%
[19]
  Activity: 100%

## Cc1ccc2nc(SCC(=O)NN3C(=O)c4c(Br)c(Br)c(Br)c(Br)c4C3=O)n(Cc3ccccc3)c(=O)c2c1
[10]
  Activity: inactive

## Cc1ccc2nc(SCC(=O)NN3C(=O)c4ccccc4C3=O)n(Cc3ccccc3)c(=O)c2c1
[10]
  Activity: inactive

## O=C(COc1nc(-c2cccs2)nc2ccc(I)cc12)NN1C(=O)c2c(Br)c(Br)c(Br)c(Br)c2C1=O
[10]
  Activity: 30%

## O=c1c2cc([N+](=O)[O-])ccc2nc(S)n1Cc1ccccc1
[10]
  Activity: inactive

## CCOC(=O)COc1nc(-c2cccs2)nc2ccc(I)cc12
[10]
  Activity: 30%

## O=C1c2cccc3cccc(c23)C(=O)N1n1c(-c2cccs2)nc2ccc(I)cc2c1=O
[10]
  Activity: inactive

## CCOC(=O)CSc1nc2ccc(C)cc2c(=O)n1Cc1ccccc1
[10]
  Activity: inactive

## O=C(COc1nc(-c2cccs2)nc2ccc(I)cc12)NN1C(=O)c2c(Cl)c(Cl)c(Cl)c(Cl)c2C1=O
[10]
  Activity: 30%

## Cc1ccc2nc(S)n(-c3ccccc3)c(=O)c2c1
[10]
  Activity: 70%
[11]
  Activity: 0%
[28]
  Activity: 80%
[19]
  Activity: 100%

## CCOC(=O)CSc1nc2ccc(C)cc2c(=O)n1-c1ccccc1
[10]
  Activity: inactive

## O=C(Nc1ccc(I)cc1C(=O)O)c1cccs1
[10]
  Activity: inactive

## Cc1ccc2nc(S)n(Cc3ccccc3)c(=O)c2c1
[10]
  Activity: inactive

## O=C1c2c(Cl)c(Cl)c(Cl)c(Cl)c2C(=O)N1n1c(-c2cccs2)nc2ccc(I)cc2c1=O
[10]
  Activity: inactive

## Cc1ccc2nc(SCC(=O)NN3C(=O)c4cccc5cccc(c45)C3=O)n(Cc3ccccc3)c(=O)c2c1
[10]
  Activity: 70%
[11]
  Activity: 30%
[28]
  Activity: 80%
[19]
  Activity: 100%

## O=C1c2ccccc2C(=O)N1n1c(-c2cccs2)nc2ccc(I)cc2c1=O
[1]
  selectivity ratio: 5.5
[2]
  Activity: 10%
[3]
  LD50: 1380 mg/kg
[4]
  Activity: 0%
[5]
  Activity: 0%
[6]
  Activity: 30%
[7]
  TD50: 447 mg/kg
[8]
  Activity: 0%
[9]
  Activity: 70%
[10]
  Activity: 100%
[11]
  Activity: 30%
[12]
  Activity: 0%
[29]
  Ratio ED50: 2
[30]
  Activity: 50%
[13]
  Activity: 50%
[14]
  ED50: 251 mg/kg
[15]
  Activity: 80%
[16]
  Activity: 0%
[17]
  Activity: 30%
[31]
  Activity: 20%
[18]
  Activity: 0%
[19]
  Activity: 100%
[20]
  Activity: 40%
[21]
  Ratio TD50/ED50: 1.78
[22]
  Activity: 30%
